Consider 31 compounds from PubChem BioAssay (NCI).

Where “and” joins values, the source holds several entries; their conditions need not be identical. Equal entries are not always repeated.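 Cells were grown in 96-well plates and exposed to each compound for 48 hours at five concentrations; endpoints were interpolated linearly between bracketing concentrations, or set to the highest concentration if not reached. GI50 marks 50% less growth. TGI marks complete inhibition of growth.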 A value given as a limit tells only on which side of the number the result lay.

For one experiment, the system named is NCI-H226 lung. The experiment is described as follows: NCI-60 cell line screen, 48 h.
Take `COc1ccc(Nc2nc3ccccc3nc2-c2cccs2)cc1`: the TGI is over 100 µM.
Same read-out and setting: for `CCOC(=O)/C(=C/c1cccc(OC)c1)N(CC)CC` the value was over 100 µM; for `Cc1nnc(N/N=C(/C(=O)C(C#N)c2ccccc2)C(C#N)c2ccccc2)n1N` (stereo unspecified), over 61.7 µM.
Still for that read-out and setting: then `COc1c(Br)cc(Br)c(OC)c1-c1[nH]c(Br)c(Br)c1Br`, with 25.8 µM.
For `NC(=O)/C=C/C(=O)O`, the TGI is over 5000 µM.
`CC(CC(=O)Nc1ccc(NC(=O)CC(C)N=NC(N)=S)cc1)N=NC(N)=S` (stereo unspecified) registered a TGI of over 100 µM.
`Cc1c(C(=O)CSc2nc3ccccc3c(=O)n2-c2ccccc2)c(=O)n(-c2ccccc2)n1C` displayed a TGI of 69.2 µM.
Compound `CC(=O)OC1COC(n2c(=S)n(-c3ccccc3)c(=O)c3cc(Br)ccc32)C(OC(C)=O)C1OC(C)=O` (stereo unspecified) had a TGI of over 100 µM.
With `CC1=C(C(=O)Nc2ccccc2C)C(/C=C/c2ccccc2)C(C(=O)Nc2ccccc2C)=C(C)N1`, the TGI is over 100 µM.
Regarding `O=C1C=C(O)c2[nH]c(=O)ccc2C1=O`, the TGI was over 100 µM.
Still for that read-out and setting: for `O=c1ncccn1C1C=C(CO)C(O)C1O` (stereo unspecified) the value was over 50 µM.
Same read-out and setting: then `O=c1c(Cl)c(Cl)cnn1CCc1ccncc1`, with 84.1 µM; and `CC1(Cc2ccccc2)NC(=S)NC1=O` (stereo unspecified), with over 100 µM; and `COC1OC(C)C(OCc2ccccc2)C(OS(=O)(=O)c2ccc(C)cc2)C1OS(=O)(=O)c1ccc(C)cc1` (stereo unspecified), with over 100 µM.
Turning to `O=C1C2=C(c3ccccc31)C(c1ccccc1Cl)N1C(=O)CCSC1=N2` (stereo unspecified), the TGI is over 100 µM.

Another experiment relates to OVCAR-8 ovarian. Description: NCI-60 cell line screen, 48 h.
As for `CC1(c2ccccc2)CC(c2ccccc2)=NO1` (stereo unspecified), the TGI is over 100 µM.
The same measure, in the same setting: then `COc1cccc(/C=C2\CCC(C)(CN(C)C)C2=O)c1` (stereo unspecified), with over 100 µM; and `Cl[Si]1(Cl)Oc2ccccc2O[Si](Cl)(Cl)Oc2ccccc2O1`, with over 100 µM.
With `C[n+]1c2ccccc2cc2c(CNC(CCCN=C(N)N)C(=O)O)cccc21` (stereo unspecified), the GI50 is 2.42 µM; the TGI was 5.11 µM and 7.74 µM.
For `CC(=O)[O-].CC(=O)[O-].CC(=O)[O-].CC(=O)[O-].[Mo+2].[Mo+2]`, the GI50 was over 100 µM and the TGI was over 100 µM.
`C=CCC1[C@@H](C(C)(C)C(C(C)=O)C(=O)C(=O)OC)OC(C(C)(C)C)N1C(=O)OC` (stereo partly specified) showed a TGI of over 100 µM.
The same measure, in the same setting: for `CC1(C)OC2COC3(CNO)OC(C)(C)OC3C2O1` (stereo unspecified) the value was over 100 µM.
On the same count and under the same terms, then `CCOC(=O)C(=O)Nc1ccccc1C(F)(F)F`, with over 100 µM; and `COc1ccc(Nc2nc3ccccc3nc2-c2cccs2)cc1`, with over 100 µM.
In the case of `CCOC(=O)/C(=C/c1cccc(OC)c1)N(CC)CC`, the TGI is over 100 µM.
With `Cc1nnc(N/N=C(/C(=O)C(C#N)c2ccccc2)C(C#N)c2ccccc2)n1N` (stereo unspecified), the TGI came out at 15.2 µM.
The compound `COc1c(Br)cc(Br)c(OC)c1-c1[nH]c(Br)c(Br)c1Br` displayed a TGI of 25 µM.
`CCOC(=O)c1ccc(N[C@@H]2c3cc4c(cc3C(C3=CC(=O)C(=O)C(OC)=C3)[C@H]3C(=O)OCC32)OCO4)cc1` (stereo partly specified) returned a TGI of 15.9 µM.
Consider `NC(=O)/C=C/C(=O)O`, for which the TGI was over 5000 µM.
With `CC(CC(=O)Nc1ccc(NC(=O)CC(C)N=NC(N)=S)cc1)N=NC(N)=S` (stereo unspecified), the TGI is over 100 µM.
Still for that read-out and setting: for `COC(=O)/C(C#N)=C1\CCC(C(=O)OC)N1C` (stereo unspecified) the value was over 100 µM.
On to `c1ccc(Cn2cnc3ccc(-c4nc(-c5ccc6c(c5)ncn6C5CCCCC5)cn5ccnc45)cc32)cc1`, for which the GI50 was 2.6 µM and the TGI is 6.54 µM.
For `CSc1c(C)c(C)nn1-c1ccccc1`, the TGI is over 100 µM.
Still for that read-out and setting: for `CC(=O)OC1COC(n2c(=S)n(-c3ccccc3)c(=O)c3cc(Br)ccc32)C(OC(C)=O)C1OC(C)=O` (stereo unspecified) the value was over 100 µM.
Still for that read-out and setting: then `CC1=C(C(=O)Nc2ccccc2C)C(/C=C/c2ccccc2)C(C(=O)Nc2ccccc2C)=C(C)N1`, with over 100 µM.
The same measure, in the same setting: then `COc1cc2cnc3c4ccccc4ccc3c2cc1OC`, with over 100 µM; and `Cc1cn(C2OC(C)(CO)C(O)C2O)c(=O)[nH]c1=O` (stereo unspecified), with over 100 µM; and `O=C1C=C(O)c2[nH]c(=O)ccc2C1=O`, with over 100 µM.
With `CCN(CC)CC(=O)N1CCc2c([nH]c3ccccc23)C1c1cccnc1` (stereo unspecified), the TGI is over 100 µM.
Same read-out and setting: for `O=c1c(Cl)c(Cl)cnn1CCc1ccncc1` the value was 43.1 µM; for `CCCCCCCCCCCCCC(=O)OCC1OC(=O)CC1O` (stereo unspecified), over 100 µM; for `CC1(Cc2ccccc2)NC(=S)NC1=O` (stereo unspecified), over 100 µM.
`COC1OC(C)C(OCc2ccccc2)C(OS(=O)(=O)c2ccc(C)cc2)C1OS(=O)(=O)c1ccc(C)cc1` (stereo unspecified) had a TGI of over 100 µM.
Still for that read-out and setting: then `O=C1C2=C(c3ccccc31)C(c1ccccc1Cl)N1C(=O)CCSC1=N2` (stereo unspecified), with over 100 µM.

The test system of another experiment is NCI-H522 lung. Description: NCI-60 cell line screen, 48 h.
Regarding `CC1(c2ccccc2)CC(c2ccccc2)=NO1` (stereo unspecified), the TGI was over 100 µM.
Still for that read-out and setting: for `COc1cccc(/C=C2\CCC(C)(CN(C)C)C2=O)c1` (stereo unspecified) the value was 91.6 µM; for `Cl[Si]1(Cl)Oc2ccccc2O[Si](Cl)(Cl)Oc2ccccc2O1`, 5.4 µM.
For the compound `C[n+]1c2ccccc2cc2c(CNC(CCCN=C(N)N)C(=O)O)cccc21` (stereo unspecified), the GI50 is 0.157 µM; the TGI was 2.78 µM and 0.342 µM.
On to `CC(=O)[O-].CC(=O)[O-].CC(=O)[O-].CC(=O)[O-].[Mo+2].[Mo+2]`, for which the GI50 was over 100 µM and the TGI is over 100 µM.
In the case of `C=CCC1[C@@H](C(C)(C)C(C(C)=O)C(=O)C(=O)OC)OC(C(C)(C)C)N1C(=O)OC` (stereo partly specified), the TGI is over 100 µM.
Consider `COc1ccc(Nc2nc3ccccc3nc2-c2cccs2)cc1`, for which the TGI was over 100 µM.
As to `CCOC(=O)/C(=C/c1cccc(OC)c1)N(CC)CC`, the TGI was over 100 µM.
On the same count and under the same terms, for `Cc1nnc(N/N=C(/C(=O)C(C#N)c2ccccc2)C(C#N)c2ccccc2)n1N` (stereo unspecified) the value was 56.1 µM.
For `COc1c(Br)cc(Br)c(OC)c1-c1[nH]c(Br)c(Br)c1Br`, the TGI came out at 7.25 µM.
For the compound `CCOC(=O)c1ccc(N[C@@H]2c3cc4c(cc3C(C3=CC(=O)C(=O)C(OC)=C3)[C@H]3C(=O)OCC32)OCO4)cc1` (stereo partly specified), the TGI was found to be 18.8 µM.
On the same count and under the same terms, then `NC(=O)/C=C/C(=O)O`, with over 5000 µM; and `Cc1c(C(=O)CSc2nc3ccccc3c(=O)n2-c2ccccc2)c(=O)n(-c2ccccc2)n1C`, with 79.5 µM; and `COC(=O)/C(C#N)=C1\CCC(C(=O)OC)N1C` (stereo unspecified), with over 100 µM.
For the compound `c1ccc(Cn2cnc3ccc(-c4nc(-c5ccc6c(c5)ncn6C5CCCCC5)cn5ccnc45)cc32)cc1`, the GI50 is 2.03 µM and the TGI worked out at 5.09 µM.
Consider `CSc1c(C)c(C)nn1-c1ccccc1`, for which the TGI was over 100 µM.
